In patent US8173788B2, “Peptide having ability to activate cancer-related gene” (priority 2005, dated 2012):
Where no end group is shown, it is not given here.

Key:
[1] = tested on: human normal peripheral blood monocyte; assay: Influence of the artificially synthesized peptide on normal cell genes: coculture 7 hr, DNA chip system (Clontech), about 55000 human genes (Table 4); assay type: cell-based; conditions: monocytes, 7 hr
Experimental: (a) The peptide obtained in Example 3 was added to a human normal peripheral blood monocyte culture system (10 to 100 μg peptide/1×10^6 to 1×10^7 monocytes), and they were cocultured for 7 hr. Then, mRNA was extracted from the monocytes and was applied to analysis for up-regulation and down-regulation in respect to about 55000 human genes by using DNA chip system (Clontech).

[2] = tested on: peripheral blood monocytes; assay: Effect of the artificially synthesized peptide on total mRNA amount of peripheral blood monocytes; assay type: cell-based, human; set-up: reduction ratio: concentration or dose not given beside the values; conditions: peptide 7 hr; for post total RNA: 1 × 10^7 monocytes
Experimental: (b) The peptide obtained in Example 3 was added to a culture medium (10 to 100 μg peptide/1×10^7 monocytes) for human normal peripheral blood monocytes extracted from subjects shown in Table 5 below, and they were cocultured for 7 hr. Then, total mRNA was extracted from the monocytes, and the amount of the total mRNA was measured and compared to that of the total mRNA before the treatment with the peptide.

[3] = tested on: peripheral blood monocytes; assay: RT-PCR gene pattern change after 7 hr peptide treatment, peripheral blood monocytes; assay type: cell-based, human
Experimental: (§1) In order to examine influences at a gene level of the peptide on normal cells, RT-PCR was performed by adding the peptide artificially synthesized in Example 3 to the normal cells.
(§2) (1) Normal cells were treated with the artificially synthesized peptide for 7 hr as follows:
(§3) Then, total RNA was extracted from the above-treated normal cells, untreated normal cells, and squamous-cell carcinoma cells by using an RNA extraction kit (QIAGEN). The numbers of the treated cells and the untreated cells were the same.
(§4) Reverse transcription was performed by using 30 μg of each extracted total RNA to generate cDNA pools.
(§5) PCR was conducted using each of the cDNA pools as templates.
(§6) The condition for the PCR was as follows:
(§7) (2) Each of the PCR products was applied to electrophoresis and detected by using a fluorescence label.

Skin fibroblast cell = assay: RT-PCR gene pattern change after 7 hr peptide treatment, skin fibroblast cell; assay type: cell-based; conditions: 11-amino acid primer (full sequence), skin fibroblast sample
Experimental: as §1, §2, §3, §4, §5, §6, §7

Kidney mesangium cell = assay: RT-PCR gene pattern change after 7 hr peptide treatment, kidney mesangium cell; assay type: cell-based; conditions: 11-amino acid primer (full sequence), kidney mesangium sample
Experimental: as §1, §2, §3, §4, §5, §6, §7

[4] = tested on: Pancreatic epithelial cells; assay: RT-PCR gene pattern change after 7 hr peptide treatment, pancreatic epithelial cells; assay type: cell-based; conditions: pancreatic epithelial sample
Experimental: as §1, §2, §3, §4, §5, §6, §7

Normal lymphocytes = assay: Exhaustive gene analysis of 55000 genes by DNA chip system (Codelink System); assay type: cell-based; conditions: normal lymphocytes treated vs untreated, Codelink slide 55000 genes
Experimental: Characteristics of the peptide of the present invention were clarified by conducting the analysis described below in order to examine effects of the peptide on gene expression of normal cells.
Normal lymphocytes were treated with the peptide of the present invention as in Examples 4 and 5, and the gene expression was compared to that of untreated lymphocytes by using a DNA chip system (Codelink System). In this examination, cRNA derived from bacteria was used as a positive control. Total RNA was extracted by using the QIAGEN RNA extraction kit used in Example 5. The total RNA (5 to 10 μg) was subjected to reverse transcription using an oligo-dT primer having a T7 RNA polymerase promoter region as a reverse primer to generate a pool of cDNAs complementary to the mRNAs. The condition for the reverse transcription was the same as that in Example 5. […] The amount of the cRNA was measured with a spectrophotometer to confirm at least 10 μg of the cRNA. […]
The hybridization chamber was removed and the plate was washed at 46° C. for 1 hr. The hybridization was detected with Cy5-streptavidin (1:500 dilution, at room temperature for 30 min). […]
(5) The result was analyzed by exclusive software for the Codelink analysis. […]

[5] = tested on: rejection in skin transplantation; assay: Skin transplantation test, C57Black/6N skin to back of BALB/c mouse; assay type: in vivo; conditions: 50 μg peptide/0.1 ml/mouse subcutaneously
Experimental: Then, the cellular immunity-inhibition activity of the peptide was examined from the viewpoint of activity for preventing rejection in skin transplantation.
The peptide of the present invention was administered to mice who have received skin transplantation according to the schedule shown in Table 6.

[6] = subject eight, healthy subject (smoker)
[7] = subject five, healthy subject (side-stream smoke)
[8] = subject four, cancer patient received chemotherapy and radiotherapy
[9] = subject one, healthy subject (side-stream smoke)
[10] = subject seven, healthy subject (smoker)
[11] = subject two, healthy subject (side-stream smoke)

With “QPQFGRRMESK [artificially synthesized peptide]” the “Expression of TNF” value [1] was “not enhanced”, the “expression of cell growth factor such as a platelet-derived growth factor” value [1] was “enhanced” and the “expression of genes relating to anti-tumor immunity” value [1] was “highly suppressed”. For the same sequence, the “expression of most of important factors as an operating factor for the humoral immunity mechanism” value [1] was “enhanced”, the “Expression of a gene relating to inhibition of metastasis of breast cancer, suppressed to” value ([1]; fraction of baseline) was 1/60 and the “expression of RAS suppressor protein gene, suppressed to” value ([1]; fraction of baseline) was 1/43. The “expression of a gene relating to inhibition of leukemia, suppressed to” value ([1]; fraction of baseline) was 1/43, the “post total RNA” value ([2]; subject eight, healthy subject (smoker), pre 45.875 μg/ml) was 0.958 µg/mL and the post/pre [2, 6] was 2%. The reduction ratio [2, 6] was 98%, the “post total RNA” value ([2]; subject five, healthy subject (side-stream smoke), pre 58.076 μg/ml) was 19.551 µg/mL and the post/pre [2, 7] was 33.6%. The reduction ratio [2, 7] was 66.4%, the “post total RNA” value ([2]; subject four, cancer patient received chemotherapy and radiotherapy, pre 8.078 μg/ml) was 1.757 µg/mL and the post/pre [2, 8] was 21.7%. For the same sequence, the reduction ratio [2, 8] was 78.3%, the “post total RNA” value ([2]; subject one, healthy subject (side-stream smoke), pre 69.622 μg/ml) was 7.735 µg/mL and the post/pre [2, 9] was 11.1%. For the same sequence, the reduction ratio [2, 9] was 88.9%, the “post total RNA” value ([2]; subject seven, healthy subject (smoker), pre 20.779 μg/ml) was 9.188 µg/mL and the post/pre [2, 10] was 44.2%. For the same sequence, the reduction ratio [2, 10] was 55.8%, the “post total RNA” value ([2]; subject six, healthy subject, pre 52.318 μg/ml) was 17.681 µg/mL and the post/pre ([2]; subject six, healthy subject) was 33.7%. The reduction ratio ([2]; subject six, healthy subject) was 66.3%, the “post total RNA” value ([2]; subject three, healthy subject, pre 61.145 μg/ml) was 16.562 µg/mL and the post/pre ([2]; subject three, healthy subject) was 27%. The reduction ratio ([2]; subject three, healthy subject) was 73%, the “post total RNA” value ([2]; subject two, healthy subject (side-stream smoke), pre 66.804 μg/ml) was 14.742 µg/mL and the post/pre [2, 11] was 22%. The reduction ratio [2, 11] was 78%, the “gene band pattern by PCR before and after peptide treatment” value (“gene band pattern” below) ([3]; 11-amino acid primer (full sequence), peripheral blood sample (H.S.), 7 hr) was “a difference in the band patterns was observed” and the “gene pattern change by PCR after peptide treatment” value ([3]; 11-amino acid primer, sample of lanes 2 and 3 of FIG. 2B, healthy young man in twenties) was “gene mutation was hardly induced”. For the same sequence, the “gene band pattern” value (Skin fibroblast cell) was “a difference in the band patterns was observed”, the “gene band pattern” value (Kidney mesangium cell) was “a difference in a position having a high concentration was observed” and the “gene band pattern” value ([4]; 7-amino acid primer (partial sequence)) was “a difference in the band patterns was observed”. The “gene band pattern” value ([4]; 11-amino acid primer (full sequence)) was “a difference in a position having a high concentration was observed”, the “expression status of cancer-related genes” value (Normal lymphocytes) was “Cancer-inducing expression status of cancer-related genes was observed” and the “delay of skin rejection versus control” value ([5]; intermittent) was 5 days. For the same sequence, the “rejection in skin transplantation / skin graft survival” value ([5]; intermittent) was “the rejection in the skin transplantation was suppressed and skin graft survival was prolonged”, the “skin rejection occurred, days after the transplantation” value ([5]; intermittent, 6 mice, control 7 days) was 12 days and the “survival of the transplanted skin of one mouse after the transplantation” value ([5]; one mouse) was 14 days.
